In patent US20260345729A1, “TISSUE DIFFERENTIATION FACTOR RELATED POLYPEPTIDES (TDFRPS) FOR THE TREATMENT OF MYOCARDIAL INJURY” (Therapeutics By Design, LLC, priority 2022, published 2026):
“And” between values parts separate entries of the source, which are not always exact repeats. Identical values can stand only once. “Also recorded” adds a separate entry of the source.

B1: BMP-7: bone morphogenetic proteins (BMPs) (protein, UniProt P18075 293-431, looked up)
Bone morphogenetic protein 7: STGSKQRSQNRSKTPKNQEALRMANVAENSSSDQRQACKKHELYVSFRDLGWQDWIIAPEGYAAYYCEGECAFPLNSYMNATNHAIVQTLVHFINPETVPKPCCAPTQLNAISVLYFDDSSNVILKKYRNMVVRACGCH

Columns and labels:
[1] = tested on: Caspase-3, cardiomyocytes; test: Doxorubicin-induced Caspase-3 activity in cardiomyocytes; type: cell-based, rat; settings: for caspase-3 activity (effect of doxorubicin itself): 333 μM (legend) / 0.33 μM (example) doxorubicin, cardiomyocytes, FIG. 3; for doxorubicin induced Caspase-3 activity: doxorubicin 0.33 μM 24 h (FIG. 3 legend: 333 μM), then BMP-7 143 nM or THR-123 100 and 500 μM for 60 h, p<0.05
Description: (§1) Neonatal rat cardiomyocytes (CM) were pre-treated with 0.33 μM doxorubicin for 24 h, followed by treatment with BMP-7 (143 nM) or THR-123 (SEQ ID NO: 1) at 100 and 500 μM for 60 h.
Neonatal rat cardiomyocytes (CM) were pre-treated with 0.33 μM doxorubicin for 24 h, followed by treatment with BMP-7 (143 nM) or SEQ ID No. 1 at 100 and 500 μM for 60 h. […] Caspase-3 activation is a step common to both apoptotic pathways and leads to apoptosis.

[2] = tested on: phosphorylation of AKT, cardiomyocytes; test: Phosphorylated AKT in doxorubicin-treated cardiomyocytes; type: cell-based, rat; settings: FIG. 2
Excerpt: (§2) The examples described herein valuated the effect of TDFRP's on the physiology of cardiomyocytes in vitro. Phosphorylation of cellular AKT at Ser473 is known to promote cardiomyocyte survival, function, and contractility. Cellular enzyme Caspase-3 is responsible for apoptosis via both apoptosis pathways. Chemotherapeutic agent doxorubicin […] used to treat a diverse number of cancers, but one significant side effect is decreased heart function. In cardiomyocytes, doxorubicin hinders the phosphorylation of AKT and stimulates Caspase-3. Lipopolysaccharides (LPS) are endotoxins that promote inflammation and apoptosis in cardiomyocytes.
as §1

[3] = tested on: paracardial inflammation in rat hearts after LAD ligation; test: Paracardial inflammation / pericarditis inflammation level in rat LAD ligation model; type: in vivo; settings: i.v.; BMP-7 160 μg/kg; THR-123 10 mg/kg; day 7 post ligation; FIG. 9
Description: Myocardial ischemia was created by ligating the left anterior descending artery (LAD), which supplies blood to the left ventricle of the heart. In the LAD infarct model the chest and the pericardium are opened to expose the LAD. A suture is placed around the LAD and loops are added to the two ends, then the suture is tightened with an over hand knot (ligation). The ligation blockage to the LAD was maintained for 20 min to simulate a coronary infarct, then released using the two loops.
The animals were divided into three groups that were dosed with PBS, BMP-7, or THR-123 (SEQ ID NO: 1). Administrations were at 2 hr prior to ligation and at 24, 72 and 120 hr post ligation.
Twenty-four unmanipulated rats, sorted into three large groups by initial body weight (>300 g pre-surgery) were evaluated. Animals underwent surgery and were sorted into 3 treatment groups: Group 1: Vehicle (neg. control), PBS, equal volume i.v; Group 2: BMP-7, 160 μg/kg i.v.<5 ml/kg; Group 3: THR-123 (SEQ ID NO: 1), 10 mg/kg i.v.<5 ml/kg. The LAD was ligated to create a 20 min period of ischemia, then released for seven days during which reperfusion injury occurs (IR injury).
The predominance of the hearts from the PBS treated group had more severe inflammation than hearts from the BMP-7 treated and the THR-123 (SEQ ID NO: 1) treated groups (FIG. 9).

[4] = tested on: myocardial ischemia in the rat after ligation of the left anterior descending artery; test: Rat LAD ligation model: histomorphometric necrotic volume / volume at risk (ischemia/reperfusion injury); type: in vivo; settings: i.v. 2 hr prior and 24, 72, 120 hr post ligation, 20 min ischemia, 7 days reperfusion, BMP-7 160 μg/kg (p=0.08), THR-123 10 mg/kg (p=0.007), FIG. 8
Description: For each slice of a heart, the area of the necrotic area and the area of the whole area at risk (not stained blue) are measured. The areas are summed over all slices to obtain an estimate of the necrotic volume (NV) and the volume at risk (VR). The ratio of NV/VR is a measure of the myocardial injury resulting from the period of ischemia and subsequent reperfusion injury.
The efficacy of BMP mimetic THR-123 in ameliorating the effects of myocardial ischemia was investigated in the rat after ligation of the coronary artery. The rat LAD model is used for studying the effect of treatments for ameliorating the effect of a heart attack (coronary infarct). The Left Anterior Descending artery (LAD) supplies blood to the left ventricle. Blocking blood flow through the LAD creates ischemia in a region of the left ventricle muscle (region at risk). […]
Twenty-four unmanipulated rats, sorted into three large groups by initial body weight (>300 g pre-surgery) were evaluated. […]
The effect of the LAD ligation was measured via histomorphometric analysis of heart slices where the necrotic areas (yellow) and the areas impacted by the LAD ligation (area at risk, i.e., not stained blue) were measured for each slice and summed over all slices to obtain a measure of the infarct volume and the volume at risk (FIG. 7). […]

[5] = tested on: Akt phosphorylation at Serine 473, neonatal rat cardiomyocytes; test: Akt phosphorylation (Ser473) in cardiomyocytes starved by serum withdrawal (ischemic injury); type: cell-based; settings: serum/growth supplement withdrawal; THR-123 100 μM, 60 h; p<0.01; FIG. 1
Excerpt: Phosphorylated Akt is a marker of apoptosis. Ischemic injury leads to apoptosis.
as §2
Primary neonatal rat cardiomyocytes (Cell Applications) were cultured in medium with 10% growth supplement (Cell Applications) for 24 hours at 37 °C, 5% CO2. Cells were then starved of growth supplement for 12 hours to create ischemic injury. Controls received medium alone. Cells were incubated with culture medium alone, BMP-7 (143 nM) or SEQ ID No. 1 (100 μM) for 60 h. In FIG. 1, Akt phosphorylation at Serine 473 (Cell Signaling Technology) is depressed due to media starvation and was not affected by the addition of PBS.

[6] = tested on: IL-6, cardiomyocytes; test: LPS-induced IL-6 release in cardiomyocytes; type: cell-based, human; settings: 100 ng/ml LPS; BMP-7 143 nM; THR-123 4, 20, 100, 500 μM; FIG. 5
[7] = tested on: Caspase-3, cardiomyocytes; test: LPS-induced Caspase-3 in cardiomyocytes; type: cell-based, human; settings: 100 ng/ml LPS; BMP-7 143 nM; THR-123 4, 20, 100, 500 μM (legend: 20 μM or higher); FIG. 4

Molecule | caspase-3 activity (effect of doxorubicin itself) [1] | caspase-3 activity (effect of doxorubicin itself) ([1]; listed as Doxorubicin) | phosphorylation of AKT (effect of doxorubicin itself) ([2]; 333 nM doxorubicin, serum starved cardiomyocytes) | paracardial inflammation relative to PBS [3] | reduction in myocardial injury / IR damage relative to PBS (necrotic volume / volume at risk) ([4]; 10 mg/kg) | Akt Ser473 phosphorylation [5] | LPS induced IL-6 [6] | LPS induced Caspase-3 [7] | doxorubicin induced Caspase-3 activity [1] | Akt phosphorylation compared to doxorubicin alone ([2]; 0.33 μM (333 nM) doxorubicin 24 h, then THR-123 at 100 and 500 μM for 60 h, p<0.01) | reduction in myocardial injury / IR damage relative to PBS (necrotic volume / volume at risk) [4]
COc1cccc2c1C(=O)c1c(O)c3c(c(O)c1C2=O)C[C@@](O)(C(=O)CO)C[C@@H]3O[C@H]1C[C@H](N)[C@H](O)[C@H](C)O1 [doxorubicin, reference compound] | stimulated caspase-3 activity | Stimulated Caspase-3 | further reduces phosphorylation of AKT |  |  |  |  |  |  |  | 
THR-123: TDFRP peptide, BMP mimetic: (H) CYFDDSSNVLCKKYRS (OH) |  |  |  | reduced paracardial inflammation relative to PBS | 85% and 84% | significantly increased Akt Ser473 phosphorylation; also recorded: reversed the effects of ischemia on AKT phosphorylation | reduces the level of LPS induced IL-6 in a concentration dependent manner; also recorded: reduced the level of IL-6 release as did THR-123 in a dose dependent manner | reduced the level of LPS induced Caspase-3 in a concentration dependent manner; also recorded: reversed caspase-3 activity to an even greater extent | inhibited doxorubicin induced Caspase-3 activity in a dose dependent manner; also recorded: significantly inhibited doxorubicin induced Caspase-3 activity; also recorded: completely reversed the apoptotic effects of doxorubicin | significantly increased cellular Akt phosphorylation; also recorded: reversed the inhibition of AKT phosphorylation in a dose dependent manner | 
B1 |  |  |  | reduced paracardial inflammation relative to PBS |  |  | reduces the level of LPS induced IL-6 in a concentration dependent manner; also recorded: reduced the level of IL-6 release | reduced the level of LPS induced Caspase-3 in a concentration dependent manner; also recorded: somewhat reversed the effect of LPS | significantly inhibited doxorubicin induced Caspase-3 activity; also recorded: completely reversed the apoptotic effects of doxorubicin |  | 51%
